Measured values reported in patent publication US20230321055A1, “PREVENTIVE TREATMENT OF MIGRAINE” (priority 2022, published 2023).

Tested on: participants with chronic migraine
Experiment: Phase 3 randomized, double-blind, placebo-controlled study of atogepant for prevention of chronic migraine: eDiary efficacy (migraine, headache and acute medication use days, responder rates)
Assay type: in vivo, human
Settings: for MMDs, LS mean difference vs. placebo / participants with ≥50% reduction in 3-month average of MMDs / ≥50% reduction in 3-month average of MMDs, OR vs placebo: Europe subpopulation; for LSM change from baseline in mean monthly acute medication use days / mean monthly acute medication use days, LSM difference vs placebo: acute medication over-users; for participants with ≥50% reduction in mean MMDs across the 12-week treatment period: acute medication overuse participants; for LSM change from baseline in mean MMDs across 12 weeks: participants with acute medication overuse at baseline; for mean change from baseline in MMDs: weeks 1-4 of treatment
Description: A phase 3, multicenter, randomized, double-blind, placebo-controlled, parallel-group study was carried out to evaluate the efficacy, safety, and tolerability of atogepant for the prevention of chronic migraine. A total of 778 participants from 133 sites in North America, Europe, and East Asia were randomized to one of three treatment arms (placebo, Atogepant 30 mg BID, and Atogepant 60 mg QD) in a 1:1:1 ratio.
This study comprised a 4-week screening and baseline period, a 12-week double blind treatment period, and a follow-up period of 4 additional weeks. The total study duration was 20 weeks. Participant disposition information and other relevant participant screening information may also be found in FIG. 19.
The primary end point was the change from baseline in the mean number of migraine days per month across the 12 week treatment period.
Secondary endpoints included change from baseline in mean monthly headache days across the 12 week treatment period; change from baseline in mean monthly acute medication use days across the 12-week treatment period; at least a 50% reduction in mean monthly migraine days across the 12-week treatment period; change from baseline in MSQ v2.1 Role Function-Restrictive domain score at week 12; change from baseline in mean AIM-D monthly functioning and activity impairment score across the 12-week treatment period; and change from baseline in HIT-6 total score at week 12.
Inclusion criteria included at least a 1-year history of chronic migraine consistent with diagnosis according to the International Classification of Headache Disorders, 3rd Edition (ICHD-3) and age of the participant at the time of migraine onset <50 years. Inclusion criteria further included confirmation of headache / migraine headache day frequency as follows: history of, on average, ≥15 headache days per month in the 3 months prior to Visit 1 in the opinion of the investigator AND >=15 headache days during the 4-week screening/baseline period per the electronic diary (eDiary) AND >=8 days during the 4-week screening/baseline period that qualify as being a migraine day per the eDiary. Participants were also required to be using a medically acceptable and effective method of birth control during the course of the entire study.
Exclusion criteria included a history of migraine, accompanied by diplopia or decreased level of consciousness, or retinal migraine; a current diagnosis of new persistent daily headache, trigeminal autonomic cephalgia (e.g., cluster headache), or painful cranial neuropathy; history of an inadequate response to >4 medications (2 of which have different mechanisms of action) prescribed for the prevention of migraine; and woman who is pregnant, planning to become pregnant during the course of the study, or currently lactating.
• All Screened Participants includes those screened participants who signed informed consent form. • The Intent-to-Treat Population includes all randomized participants. […] Treatment groups assigned as randomized.
A Subset of patients (11%) was allowed to use one concomitant migraine preventive medication (e.g., amitriptyline, propranolol, topiramate). Patients were allowed to use acute headache treatments (i.e., triptans, ergotamine derivatives, NSAIDs, acetaminophen, and opioids) as needed. Patients with acute medication overuse and medication overuse headache were also enrolled. The use of a concomitant medication that acts on the CGRP pathway was not permitted for either acute or preventive treatment of migraine. The study excluded patients with myocardial infarction, stroke, or transient ischemic attacks within six months prior to screening.
Outcomes for this analysis included change from baseline in mean MMDs during 4-week intervals, change in weekly migraine days during weeks 1-4, and the proportion of participants with a migraine on each day during the first 7 days of treatment. […] Baseline MMDs ranged from 18.6 to 19.2 across treatment groups. […]

[1] = 30 mg BID, Off-Treatment Hypothetical Estimand population
[2] = 30 mg BID, mITT, listed as atogepant
[3] = 60 mg QD, Off-Treatment Hypothetical Estimand population
[4] = 60 mg QD, mITT, listed as atogepant
[5] = range over 30 mg twice daily and 60 mg once daily

SMILES: C[C@@H]1[C@H](c2c(F)ccc(F)c2F)C[C@H](NC(=O)c2cnc3c(c2)C[C@@]2(C3)C(=O)Nc3ncccc32)C(=O)N1CC(F)(F)F [Atogepant, (S)—N—((3S,5S,6R)-6-methyl-2-oxo-1-(2,2,2-trifluoroethyl)-5-(2,3,6-trifluorophenyl)piperidin-3-yl)-2′-oxo-1′,2′,5,7-tetrahydrospiro[cyclopenta[b]pyridine-6,3′-pyrrolo[2,3-b]pyridine]-3-carboxamide]
- MMDs, LS mean difference vs. placebo (30 mg BID): −3.02
- participants with ≥50% reduction in 3-month average of MMDs (30 mg BID): 48.4%
- ≥50% reduction in 3-month average of MMDs, OR vs placebo (30 mg BID): 1.87
- LS mean change in MMDs (30 mg BID, Europe subpopulation of OTHE population (n=91)): −8.44
- decrease of monthly migraine days across the 12 weeks (30 mg BID, OTHE population): 7.33 days
- >=50% reduction in 3-month average of monthly migraine days, Odds ratio Atogepant vs. Placebo [1]: 2.03
- Change from baseline in mean monthly acute medication use days across the 12-week treatment period, LS Mean [1]: -6.61 days
- Change from baseline in mean monthly acute medication use days across the 12-week treatment period, LSMD Atogepant vs. Placebo [1]: -2.52 days
- Change from baseline in mean monthly headache days across the 12-week treatment period, LS Mean [1]: -7.32 days
- Change from baseline in mean monthly headache days across the 12-week treatment period, LSMD Atogepant vs. Placebo [1]: -2.14 days
- Change from baseline in mean monthly migraine days across the 12-week treatment period, LS Mean [1]: -7.33 days
- Change from baseline in mean monthly migraine days across the 12-week treatment period, LSMD Atogepant vs. Placebo [1]: -2.24 days
- >=50% reduction in 3-month average of monthly migraine days, Responders (30 mg BID, Off-Treatment Hypothetical Estimand population (N = 254)): 107 (42.1) n (%)
- LSM change from baseline in mean monthly acute medication use days (30 mg BID): −8.4
- mean monthly acute medication use days, LSM difference vs placebo (30 mg BID): −2.8
- participants with ≥50% reduction in mean MMDs across the 12-week treatment period (30 mg BID): 44.7%
- >=50% reduction in 3-month average of monthly migraine days, Odds ratio Atogepant vs. Placebo (30 mg BID, mITT): 2.13
- Change from baseline in mean monthly acute medication use days across the 12-week treatment period, LS Mean (30 mg BID, mITT): -6.73 days
- Change from baseline in mean monthly acute medication use days across the 12-week treatment period, LSMD Atogepant vs. Placebo (30 mg BID, mITT): -2.63 days
- Change from baseline in mean monthly headache days across the 12-week treatment period, LS Mean (30 mg BID, mITT): -7.44 days
- Change from baseline in mean monthly headache days across the 12-week treatment period, LSMD Atogepant vs. Placebo (30 mg BID, mITT): -2.32 days
- Change from baseline in mean monthly migraine days across the 12-week treatment period, LS Mean (30 mg BID, mITT): -7.46 days
- Change from baseline in mean monthly migraine days across the 12-week treatment period, LSMD Atogepant vs. Placebo (30 mg BID, mITT): -2.41 days
- decrease of monthly migraine days across the 12 weeks (30 mg BID, mITT): 7.46 days
- participants with ≥30% reduction in mean MMDs across 12 weeks (30 mg BID, mITT): 62.1%
- participants with ≥50% reduction in mean MMDs across 12 weeks (30 mg BID, mITT): 42.7%
- participants with ≥75% reduction in mean MMDs across 12 weeks (30 mg BID, mITT): 21.3%
- Change from baseline in mean monthly migraine days across the 12-week treatment period, LS Mean [2]: -7.5 days
- Change from baseline in mean monthly migraine days across the 12-week treatment period, LSMD Atogepant vs. Placebo [2]: -2.4 days
- LSM change from baseline in mean MMDs across 12 weeks (30 mg BID): −8.3
- mean change from baseline in MMDs (30 mg BID): -6.6 days
- participants with <30% reduction in mean MMDs in month 1 who experienced ≥30% reduction in either month 2 or 3 (30 mg twice daily): 50/96
- participants with <30% reduction in mean MMDs in month 1 who experienced ≥30% reduction in month 2 (30 mg twice daily): 36/99
- participants with <50% reduction in mean MMDs in month 1 who experienced ≥50% reduction in either month 2 or 3 (30 mg twice daily): 52/132
- participants with <50% reduction in mean MMDs in month 1 who experienced ≥50% reduction in month 2 (30 mg twice daily): 32/136
- participants without ≥30% reduction in mean MMDs in months 1 or 2 who experienced a ≥30% response by the end of the trial (30 mg twice daily): 23.3%
- participants without ≥50% reduction in mean MMDs in months 1 or 2 who experienced a ≥50% response by the end of the trial (30 mg twice daily): 20.0%
- sustained response among participants with ≥75% response in month 1 (30 mg twice daily, mITT): 46.9%
- sustained response of ≥30% in months 2 and 3 among participants with ≥30% response in month 1 (30 mg twice daily, mITT): 81.8%
- sustained response of ≥50% in months 2 and 3 among participants with ≥50% response in month 1 (30 mg twice daily, mITT): 71.6%
- MMDs, LS mean difference vs. placebo (60 mg QD): −2.59
- participants with ≥50% reduction in 3-month average of MMDs (60 mg QD): 46.7%
- ≥50% reduction in 3-month average of MMDs, OR vs placebo (60 mg QD): 1.84
- LS mean change in MMDs (60 mg QD, Europe subpopulation of OTHE population (n=90)): −8.00
- decrease of monthly migraine days across the 12 weeks (60 mg QD, OTHE population): 6.75 days
- >=50% reduction in 3-month average of monthly migraine days, Odds ratio Atogepant vs. Placebo [3]: 1.90
- Change from baseline in mean monthly acute medication use days across the 12-week treatment period, LS Mean [3]: -6.19 days
- Change from baseline in mean monthly acute medication use days across the 12-week treatment period, LSMD Atogepant vs. Placebo [3]: -2.09 days
- Change from baseline in mean monthly headache days across the 12-week treatment period, LS Mean [3]: -6.90 days
- Change from baseline in mean monthly headache days across the 12-week treatment period, LSMD Atogepant vs. Placebo [3]: -1.72 days
- Change from baseline in mean monthly migraine days across the 12-week treatment period, LS Mean [3]: -6.75 days
- Change from baseline in mean monthly migraine days across the 12-week treatment period, LSMD Atogepant vs. Placebo [3]: -1.66 days
- >=50% reduction in 3-month average of monthly migraine days, Responders (60 mg QD, Off-Treatment Hypothetical Estimand population (N = 257)): 103 (40.1) n (%)
- LSM change from baseline in mean monthly acute medication use days (60 mg QD): −8.1
- mean monthly acute medication use days, LSM difference vs placebo (60 mg QD): −2.6
- participants with ≥50% reduction in mean MMDs across the 12-week treatment period (60 mg QD): 41.8%
- >=50% reduction in 3-month average of monthly migraine days, Odds ratio Atogepant vs. Placebo (60 mg QD, mITT): 2.04
- Change from baseline in mean monthly acute medication use days across the 12-week treatment period, LS Mean (60 mg QD, mITT): -6.23 days
- Change from baseline in mean monthly acute medication use days across the 12-week treatment period, LSMD Atogepant vs. Placebo (60 mg QD, mITT): -2.13 days
- Change from baseline in mean monthly headache days across the 12-week treatment period, LS Mean (60 mg QD, mITT): -7.00 days
- Change from baseline in mean monthly headache days across the 12-week treatment period, LSMD Atogepant vs. Placebo (60 mg QD, mITT): -1.87 days
- Change from baseline in mean monthly migraine days across the 12-week treatment period, LS Mean (60 mg QD, mITT): -6.88 days
- Change from baseline in mean monthly migraine days across the 12-week treatment period, LSMD Atogepant vs. Placebo (60 mg QD, mITT): -1.82 days
- decrease of monthly migraine days across the 12 weeks (60 mg QD, mITT): 6.88 days
- participants with ≥30% reduction in mean MMDs across 12 weeks (60 mg QD, mITT): 59.0%
- participants with ≥50% reduction in mean MMDs across 12 weeks (60 mg QD, mITT): 41.0%
- participants with ≥75% reduction in mean MMDs across 12 weeks (60 mg QD, mITT): 18.8%
- Change from baseline in mean monthly migraine days across the 12-week treatment period, LS Mean [4]: -6.9 days
- Change from baseline in mean monthly migraine days across the 12-week treatment period, LSMD Atogepant vs. Placebo [4]: -1.8 days
- LSM change from baseline in mean MMDs across 12 weeks (60 mg QD): −7.5
- mean change from baseline in MMDs (60 mg QD): -6.2 days
- participants with <30% reduction in mean MMDs in month 1 who experienced ≥30% reduction in either month 2 or 3 (60 mg once daily): 45/108
- participants with <30% reduction in mean MMDs in month 1 who experienced ≥30% reduction in month 2 (60 mg once daily): 31/113
- participants with <50% reduction in mean MMDs in month 1 who experienced ≥50% reduction in either month 2 or 3 (60 mg once daily): 38/139
- participants with <50% reduction in mean MMDs in month 1 who experienced ≥50% reduction in month 2 (60 mg once daily): 28/146
- participants without ≥30% reduction in mean MMDs in months 1 or 2 who experienced a ≥30% response by the end of the trial (60 mg once daily): 17.1%
- participants without ≥50% reduction in mean MMDs in months 1 or 2 who experienced a ≥50% response by the end of the trial (60 mg once daily): 8.2%
- sustained response among participants with ≥75% response in month 1 (60 mg once daily, mITT): 52.5%
- sustained response of ≥30% in months 2 and 3 among participants with ≥30% response in month 1 (60 mg once daily, mITT): 81.6%
- sustained response of ≥50% in months 2 and 3 among participants with ≥50% response in month 1 (60 mg once daily, mITT): 74.2%
- likelihood of having a migraine vs placebo (first full day after treatment initiation, atogepant-treated participants, P≤0.03): significantly less likely
- participants with <30% reduction in mean MMDs in month 1 who experienced ≥30% reduction in either month 2 or 3 [5]: 41.7%-52.1%
- participants with <30% reduction in mean MMDs in month 1 who experienced ≥30% reduction in month 2 [5]: 27.4%-36.4%
- participants with <50% reduction in mean MMDs in month 1 who experienced ≥50% reduction in either month 2 or 3 [5]: 27.3%-39.4%
- participants with <50% reduction in mean MMDs in month 1 who experienced ≥50% reduction in month 2 [5]: 19.2%-23.5%
